Patent US20250206732A1, “COMPOUNDS AND METHODS FOR THE TARGETED DEGRADATION OF KRAS” (Arvinas Operations, Inc., priority 2022, published 2025)

Target: T1, AsPC-1 HiBiT-KRASG12D (Homo sapiens, UniProt P01116, G12D)
T1 construct: insert the HiBiT tag onto the N-terminus of one or more of the endogenous KRAS alleles; endogenous in cells; host or cells: AsPC-1 (ATCC CRL-1682), CRISPR-Cas9 knock-in clone, one tagged allele
Experiment: HiBiT degradation assay (G12D), AsPC-1 HiBiT-KRASG12D cells
Format: cell-based
Conditions: 24 hours treatment; for Dmax: ASPC1, AsPC-1 HiBiT-KRASG12D cells, maximum degradation observed; for DC50: AsPC-1 HiBiT-KRASG12D cells, HiBiT luminescence
Outline: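 24 h cmpd treatment, 37° C/5% CO2, AsPC-1 HiBiT-KRASG12D clone (CRISPR N-term tag). Alamar blue 1×, 4 h, fluorescence. PBS wash, Nano-Glo HiBiT lytic reagent, 45 min RT, luminescence. Triplicates.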

T1 sequence (P01116 1-188 isoform P01116-2 G12D): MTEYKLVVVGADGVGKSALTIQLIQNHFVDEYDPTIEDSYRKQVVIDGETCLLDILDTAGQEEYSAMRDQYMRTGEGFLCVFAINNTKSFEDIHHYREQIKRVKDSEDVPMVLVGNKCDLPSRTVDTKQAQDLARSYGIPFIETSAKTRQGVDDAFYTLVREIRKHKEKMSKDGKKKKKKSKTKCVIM

CCc1cccc2cc(O)cc(-c3ncc4c(N5CC6CCC(C5)N6)nc(OC[C@@H]5CC[C@@H](COC(=O)N6CCN(c7cc([C@@H](C(=O)N8C[C@H](O)C[C@H]8C(=O)N[C@@H](C)c8ccc(-c9scnc9C)cc8)C(C)C)on7)CC6)N5C)nc4c3F)c12 [Compound 289, [(2S,5S)-5-[[4-(3,8-diazabicyclo[3.2.1]octan-3-yl)-7-(8-ethyl-3-hydroxy-1-naphthyl)-8-fluoro-pyrido[4,3-d]pyrimidin-2-yl]oxymethyl]-1-methyl-pyrrolidin-2-yl]methyl 4-[5-[(1S)-1-[(2S,4R)-4-hydroxy-2-[[(1S)-1-[4-(4-methylthiazol-5-yl)phenyl]ethyl]carbamoyl]pyrrolidine-1-carbonyl]-2-methyl-propyl]isoxazol-3-yl]piperazine-1-carboxylate]
Dmax: 20 to 60% | DC50: 1000 to 3000 nM

CCc1cccc2cc(O)cc(-c3ncc4c(N5CC6CCC(C5)N6C=O)nc(OCCN5CCC6(CC5)CN(c5cc([C@H](C(=O)N7C[C@H](O)C[C@H]7C(=O)N[C@@H](C)c7ccc(-c8scnc8C)cc7)C(C)C)on5)C6)nc4c3F)c12 [Compound 290, (2S,4R)-1-[(2R)-2-[3-[7-[2-[7-(8-ethyl-3-hydroxy-1-naphthyl)-8-fluoro-4-(8-formyl-3,8-diazabicyclo[3.2.1]octan-3-yl)pyrido[4,3-d]pyrimidin-2-yl]oxyethyl]-2,7-diazaspiro[3.5]nonan-2-yl]isoxazol-5-yl]-3-methyl-butanoyl]-4-hydroxy-N-[(1S)-1-[4-(4-methylthiazol-5-yl)phenyl]ethyl]pyrrolidine-2-carboxamide]
DC50: > 3000 nM

CCc1cccc2cc(O)cc(-c3ncc4c(N5CC6CCC(C5)N6)nc(OC[C@@H]5CC[C@@H](COC(=O)N6CC(Oc7cc([C@@H](C(=O)N8C[C@H](O)C[C@H]8C(=O)N[C@@H](C)c8ccc(-c9scnc9C)cc8)C(C)C)on7)C6)N5C)nc4c3F)c12 [Compound 291]
Dmax: < 20% | DC50: < 600 nM

C#Cc1c(F)ccc2cc(O)cc(-c3ncc4c(N5CC6CCC(C5)N6)nc(OC[C@]56CCCN5[C@H](COC(=O)N5CC(Oc7cc([C@H](C(=O)N8C[C@H](O)C[C@H]8C(=O)N[C@@H](C)c8ccc(-c9scnc9C)cc8)C(C)C)on7)C5)CC6)nc4c3F)c12 [Compound 292]
Dmax: 80 to 100% | DC50: < 600 nM

CCc1cccc2cc(O)cc(-c3ncc4c(N5CC6CCC(C5)N6)nc(OCCN5CCC(CN6CCN(c7cnc(C(=O)N[C@H](C(=O)N8C[C@H](O)C[C@H]8C(=O)N[C@@H](C)c8ccc(-c9scnc9C)cc8)C(C)(C)C)cn7)CC6)CC5)nc4c3F)c12 [Compound 293]
Dmax: 60 to 80% | DC50: < 600 nM

CCc1cccc2cc(O)cc(-c3ncc4c(N5CC6CCC(C5)N6)nc(OC[C@@H]5CC[C@@H](COC(=O)N6CC(Oc7cc([C@H](C(=O)N8C[C@H](O)C[C@H]8C(=O)N[C@@H](C)c8ccc(-c9scnc9C)cc8)C(C)C)on7)C6)N5C)nc4c3F)c12 [Compound 294]
Dmax: 80 to 100% | DC50: < 600 nM

CCc1cccc2cc(O)cc(-c3ncc4c(N5CC6CCC(C5)N6)nc(OC[C@]56CCCN5[C@H](COC(=O)N5C[C@H](C)N(c7cc([C@H](C(=O)N8C[C@H](O)C[C@H]8C(=O)N[C@@H](C)c8ccc(-c9scnc9C)cc8)C(C)C)on7)C[C@H]5C)CC6)nc4c3F)c12 [Compound 296, [(3S,8R)-8-[[4-(3,8-diazabicyclo[3.2.1]octan-3-yl)-7-(8-ethyl-3-hydroxy-1-naphthyl)-8-fluoro-pyrido[4,3-d]pyrimidin-2-yl]oxymethyl]-1,2,3,5,6,7-hexahydropyrrolizin-3-yl]methyl (2R,5S)-4-[5-[(1R)-1-[(2S,4R)-4-hydroxy-2-[[(1S)-1-[4-(4-methylthiazol-5-yl)phenyl]ethyl]carbamoyl]pyrrolidine-1-carbonyl]-2-methyl-propyl]isoxazol-3-yl]-2,5-dimethyl-piperazine-1-carboxylate]
Dmax: 80 to 100% | DC50: < 600 nM

CCc1cccc2cc(O)cc(-c3ncc4c(N5CC6CCC(C5)N6)nc(OC[C@]56CCCN5[C@H](COC(=O)N5C[C@@H](C)N(c7cc([C@@H](C(=O)N8C[C@H](O)C[C@H]8C(=O)N[C@@H](C)c8ccc(-c9scnc9C)cc8)C(C)C)on7)C[C@@H]5C)CC6)nc4c3F)c12 [Compound 297, [(3S,8R)-8-[[4-(3,8-diazabicyclo[3.2.1]octan-3-yl)-7-(8-ethyl-3-hydroxy-1-naphthyl)-8-fluoro-pyrido[4,3-d]pyrimidin-2-yl]oxymethyl]-1,2,3,5,6,7-hexahydropyrrolizin-3-yl]methyl (2S,5R)-4-[5-[(1S)-1-[(2S,4R)-4-hydroxy-2-[[(1S)-1-[4-(4-methylthiazol-5-yl)phenyl]ethyl]carbamoyl]pyrrolidine-1-carbonyl]-2-methyl-propyl]isoxazol-3-yl]-2,5-dimethyl-piperazine-1-carboxylate]
Dmax: < 20% | DC50: < 600 nM

CCc1cccc2cc(O)cc(-c3ncc4c(N5CC6CCC(C5)N6)nc(OC[C@@H]5CC[C@@H](COC(=O)N6CCN(c7cc([C@@H](C(=O)N8C[C@H](O)C[C@H]8C(=O)N[C@@H](C)c8ccc(-c9scnc9C)cc8)C(C)C)on7)[C@H](C)C6)N5C)nc4c3F)c12 [Compound 298, [(2S,5S)-5-[[4-(3,8-diazabicyclo[3.2.1]octan-3-yl)-7-(8-ethyl-3-hydroxy-1-naphthyl)-8-fluoro-pyrido[4,3-d]pyrimidin-2-yl]oxymethyl]-1-methyl-pyrrolidin-2-yl]methyl (3R)-4-[5-[(1S)-1-[(2S,4R)-4-hydroxy-2-[[(1S)-1-[4-(4-methylthiazol-5-yl)phenyl]ethyl]carbamoyl]pyrrolidine-1-carbonyl]-2-methyl-propyl]isoxazol-3-yl]-3-methyl-piperazine-1-carboxylate]
DC50: > 3000 nM

CCc1cccc2cc(O)cc(-c3ncc4c(N5CCCCCC5)nc(OC[C@]56CCCN5[C@H](COC(=O)N5CC(Oc7cc([C@H](C(=O)N8C[C@H](O)C[C@H]8C(=O)N[C@@H](C)c8ccc(-c9scnc9C)cc8)C(C)C)on7)C5)CC6)nc4c3F)c12 [Compound 300]
Dmax: 80 to 100% | DC50: < 600 nM

CCc1cccc2cc(O)cc(-c3ncc4c(N5CC6CCC(C5)N6)nc(OC[C@@H]5CC[C@@H](COC(=O)N6CCN(c7cc([C@H](C(=O)N8C[C@H](O)C[C@H]8C(=O)N[C@@H](C)c8ccc(-c9scnc9C)cc8)C(C)C)on7)[C@H](C)C6)N5C)nc4c3F)c12 [Compound 301, [(2S,5S)-5-[[4-(3,8-diazabicyclo[3.2.1]octan-3-yl)-7-(8-ethyl-3-hydroxy-1-naphthyl)-8-fluoro-pyrido[4,3-d]pyrimidin-2-yl]oxymethyl]-1-methyl-pyrrolidin-2-yl]methyl (3R)-4-[5-[(1R)-1-[(2S,4R)-4-hydroxy-2-[[(1S)-1-[4-(4-methylthiazol-5-yl)phenyl]ethyl]carbamoyl]pyrrolidine-1-carbonyl]-2-methyl-propyl]isoxazol-3-yl]-3-methyl-piperazine-1-carboxylate]
Dmax: 80 to 100% | DC50: < 600 nM
